35 molecules from patent publication US3933793A, “Therapeutically active 2-aminoalkylthio-3H-1.5-benzodiazepines and process for preparing them” (Recordati S.A. Chemical and Pharmaceutical Company, priority 1971, dated 1976) can be followed below.

SMILES strings stand for the structures. In brackets after ≈: the same amount, converted by molar mass. Counter-ions that a name gives are not always drawn.

The test system of assay [1] is Streptococcus pyogenes A 88. Kind of assay: Antibacterial activity, minimum inhibitory concentration. Conditions: A88, 18 h, read-out: minimum inhibitory concentration, S. pyogenes.
Experimental: (§1) The antibacterial activity of some of the 3H-1,5-benzodiazepines having the general formula I was tested on the following microorganisms:
(§2) Escherichia coli 100, Bacillus subtilis ATCC 9466, Micrococcus pyogenes SG-511, grown in Difco nutritive gelatin; Streptococcus pyogenes A 88 grown in Difco "Brain heart infusion agar" gelatin with 5 percent difibrinated Guinea pig blood.
(§3) The results were read after 18 hours incubation at 35°-37°C.
In assay [2] the test system is Micrococcus pyogenes SG-511. Described as above. Conditions: Staphylococcus aureus, SG511, 18 h, read-out: minimum inhibitory concentration, M. pyogenes.
Experimental: as §1, §2, §3
In assay [3] the test system is Bacillus subtilis ATCC 9466. The description is as above. Conditions: ATCC9466, 18 h, read-out: minimum inhibitory concentration, B. subtilis.
Experimental: as §1, §2, §3
The next assay relates to Escherichia coli 100. Described as above. Conditions: Escherichia coli, 100, 18 h, read-out: minimum inhibitory concentration, B. coli.
Assay [4] has as its system influenza A virus (PR8 strain). The assay is classed as in vivo. As to conditions: 0.5 MTD in 10 ml buffered saline with virus, 1 hour at 37°C.

Experimental for Escherichia coli 100: as §1, §2, §3

For `c1ccc(C2=Nc3ccccc3N=C(SCCN3CCCC3)C2)cc1` [Compound 57], the MIC in assay [1] was determined as 80 µg/mL (≈ 229 µM); in assay [2] it was 80 µg/mL (≈ 229 µM); in assay [3], 160 µg/mL (≈ 458 µM).

For the molecule `c1ccc(Sc2ccc(C3=Nc4ccccc4N=C(SCCCN4CCCC4)C3)cc2)cc1` [Compound 37, 2,gamma,pyrrolidinopropylthio-4,p-phenylthiophenyl-3H-1,5-benzodiazepine.HC], the MIC in assay [1], in assay [2] and in assay [3] was 5 µg/mL (≈ 10.6 µM) each time.

Regarding `CC[N+](C)(CC)CCSC1=Nc2ccccc2N=C(c2ccc(Br)cc2)C1` [Compound 72], the MIC was 20 µg/mL in assay [1], 20 µg/mL with Escherichia coli 100, 10 µg/mL in assay [2] and 20 µg/mL in assay [3].

With `CCSc1ccc(C2=Nc3ccccc3N=C(SCC[N+](C)(CC)CC)C2)cc1` [Compound 76], the MIC in assay [1] stood at 10 µg/mL; with Escherichia coli 100, 20 µg/mL; in assay [2], 10 µg/mL; in assay [3] it was 10 µg/mL.

Turning to `CCN(CC)CCSC1=Nc2ccccc2N=C(c2ccc(Sc3ccccc3)cc2)C1` [Compound 29, 2,beta-N-diethylaminoethylthio-4,p-phenylthiophenyl-3H-1,5-benzodiazepine.HOl], the MIC in the assay with Escherichia coli 100 came to 80 µg/mL (≈ 174 µM).

As for `C[N+](C)(C)CCCSC1=Nc2ccccc2N=C(c2ccccc2)C1` [Compound 12, 2,gamma,N-dimethylaminopropylthio-4-phenyl-3H-1,5-benzo-diazepine iodomethylate], the figures for the MIC (in assay [1]; in the assay on Escherichia coli 100; in assay [3]) were 80 µg/mL, 80 µg/mL and 160 µg/mL, respectively.

Turning to `CC[N+](C)(CC)CCSC1=Nc2ccccc2N=C(c2ccc(SC(C)C)cc2)C1` [Compound 80], the MIC was found to be 5 µg/mL in assay [1], 40 µg/mL in the assay with Escherichia coli 100, 5 µg/mL in assay [2] and 5 µg/mL in assay [3].

Regarding `CCN(CC)CCSC1=Nc2ccccc2N=C(c2ccccc2)C1` [Compound 53], the MIC (in the assay on Escherichia coli 100; in assay [2]; in assay [3]) was 80 µg/mL (≈ 228 µM) in each case.

As for `CC[N+](C)(CC)CCCSC1=Nc2ccccc2N=C(c2ccc(Cl)cc2)C1` [Compound 20, 2,gamma,N-diethylaminopropylthio-4,p-chlorophenyl-3H-1,5-benzodiazepine iodomethylate], the MIC was 40 µg/mL in assay [1], 80 µg/mL with Escherichia coli 100, 20 µg/mL in assay [2] and 80 µg/mL in assay [3].

As to `C[N+]1(C)CCN(CCCSC2=Nc3ccccc3N=C(c3ccccc3)C2)CC1` [Compound 9, 2,gamma,N'-methyl-N-piperazine-n-propylthio-4-phenyl-3H-1,5-benzodiazepine monoiodomethylate], the MIC is 80 µg/mL in assay [1], 160 µg/mL in assay [2] and 160 µg/mL in assay [3].

Regarding `CCN(CC)CCSC1=Nc2ccccc2N=C(c2ccc(OC)cc2)C1` [Compound 69], the MIC in assay [1] came to 80 µg/mL (≈ 210 µM).

As for `CCN(CC)CCSC1=Nc2ccccc2N=C(c2ccc(Oc3ccccc3)cc2)C1` [Compound 27, 2,beta,N-diethylaminoethylthio-4,p-phenoxyphenyl-3H-1,5-benzodiazepine.HCl], the MIC in the assay on Escherichia coli 100 is 80 µg/mL; in assay [3], 10 µg/mL.

For the molecule `Clc1ccc(C2=Nc3ccccc3N=C(SCCN3CCCC3)C2)cc1` [Compound 15, 2,beta,N-pyrrolidinoethylthio-4,p-chlorophenyl-3H-1,5-benzodiazepine], the MIC in assay [1] amounted to 40 µg/mL (≈ 104 µM); with Escherichia coli 100, 80 µg/mL (≈ 208 µM); in assay [2], 40 µg/mL (≈ 104 µM); in assay [3] it was 20 µg/mL (≈ 52.1 µM).

For `CN1CCN(CCSC2=Nc3ccccc3N=C(c3ccccc3)C2)CC1` [Compound 63], the “APR8: difference between logarithms of EID95 of controls and of treated eggs” value (“APR8: difference between logarithms” below) in assay [4] is listed as 1.

With `CC[N+](C)(CC)CCSC1=Nc2ccccc2N=C(c2ccc(Cl)cc2)C1` [Compound 18, 2,beta,N-diethylaminoethylthio-4,p-chlorophenyl-3H-1,5-benzodiazepine iodomethylate], the figures for the MIC (in the assay on Escherichia coli 100; in assay [2]; in assay [3]) were 20 µg/mL, 40 µg/mL and 20 µg/mL, respectively.

Consider `CCCSc1ccc(C2=Nc3ccccc3N=C(SCCN(CC)CC)C2)cc1` [Compound 77], for which the values for the MIC in assay [1], in assay [2] and in assay [3] were 5 µg/mL (≈ 11.7 µM), 10 µg/mL (≈ 23.5 µM) and 5 µg/mL (≈ 11.7 µM), respectively.

Take `C[N+]1(CCSC2=Nc3ccccc3N=C(c3ccccc3)C2)CCCC1` [Compound 58]: in assay [4], the “APR8: difference between logarithms” value is listed as 1.

Regarding `CN(C)CCSC1=Nc2ccccc2N=C(c2ccc(Sc3ccccc3)cc2)C1` [Compound 45, 2,beta,N-dimethylaminoethylthio-4,p-phenylthiophenyl-3H-1,5-benzodiazepine citrate], the MIC in assay [3] was determined as 20 µg/mL.

For `CC[N+](C)(CC)CCSC1=Nc2ccccc2N=C(c2ccc(SC)cc2)C1` [Compound 74], the MIC is 10 µg/mL in assay [1], 40 µg/mL in the assay on Escherichia coli 100, 20 µg/mL in assay [2] and 10 µg/mL in assay [3].

Consider `CC[N+](C)(CC)CCSC1=Nc2ccccc2N=C(c2cccc(Cl)c2)C1` [Compound 22, 2,beta,N-diethylaminoethylthio-4,m-chlorophenyl-3H-1,5-benzodiazepine iodomethylate], for which the MIC worked out at 40 µg/mL in assay [1], 40 µg/mL with Escherichia coli 100, 20 µg/mL in assay [2] and 80 µg/mL in assay [3].

`c1ccc(Sc2ccc(C3=Nc4ccccc4N=C(SCCN4CCCC4)C3)cc2)cc1` [Compound 43, 2,beta,N-pyrrolidinoethylthio-4,p-phenylthiophenyl-3H-1,5-benzodiazepine]: the MIC in assay [1] and in assay [3] was 1.25 µg/mL (≈ 2.73 µM) throughout.

Turning to `CCN(CC)CCSC1=Nc2ccccc2N=C(c2ccc(Cl)cc2)C1` [Compound 17, 2,beta,N-diethylaminoethylthio-4,p-chlorophenyl-3H-1,5-benzodiazepine^.HCl], the values for the MIC in assay [1], in assay [2] and in assay [3] were 20 µg/mL, 40 µg/mL and 20 µg/mL, respectively.

As for `C[N+]1(CCCSC2=Nc3ccccc3N=C(c3ccc(Cl)cc3)C2)CCCC1` [Compound 14, 2,gamma,N-pyrrolidinopropylthio-4,p-chlorophenyl-3H-1.5-benzodiazepine iodomethylate], the MIC in assay [1] stood at 40 µg/mL; in the assay with Escherichia coli 100, 40 µg/mL; in assay [2], 20 µg/mL; in assay [3], 40 µg/mL.

With `c1ccc(C2=Nc3ccccc3N=C(SCCN3CCCCC3)C2)cc1` [Compound 59], the MIC with Escherichia coli 100 was 160 µg/mL (≈ 440 µM); in assay [2], 80 µg/mL (≈ 220 µM); in assay [3] it was 80 µg/mL (≈ 220 µM).

For `C[N+]1(CCSC2=Nc3ccccc3N=C(c3ccccc3)C2)CCOCC1` [Compound 62], the “APR8: difference between logarithms” value in assay [4] is given as 1.

`CCN(CC)CCSC1=Nc2ccccc2N=C(c2ccc(Br)cc2)C1` [Compound 71]: the MIC in assay [1] was 10 µg/mL (≈ 23.2 µM); with Escherichia coli 100 it was 80 µg/mL (≈ 186 µM); in assay [2], 20 µg/mL (≈ 46.5 µM); in assay [3] it was 10 µg/mL (≈ 23.2 µM).

Turning to `Clc1ccc(C2=Nc3ccccc3N=C(SCCCN3CCCC3)C2)cc1` [Compound 13, 2,gamma,N-pyrrolidinopropylthio-4,p-chlorophenyl-3H-1,5-benzodiazepine^. HCl], the MIC is 40 µg/mL in assay [1], 80 µg/mL in the assay with Escherichia coli 100, 40 µg/mL in assay [2] and 40 µg/mL in assay [3].

Consider `CCN(CC)CCCSC1=Nc2ccccc2N=C(c2ccc(Cl)cc2)C1` [Compound 19, 2,gamma,N-diethylaminopropylthio-4,p-chlorophenyl-3H-1,5-benzodiazepine^. HCl], for which the MIC was determined as 40 µg/mL in assay [1], 80 µg/mL with Escherichia coli 100, 40 µg/mL in assay [2] and 40 µg/mL in assay [3].

As to `CCCCSc1ccc(C2=Nc3ccccc3N=C(SCC[N+](C)(CC)CC)C2)cc1` [Compound 82], the MIC was determined as 2.5 µg/mL in assay [1], 10 µg/mL with Escherichia coli 100, 2.5 µg/mL in assay [2] and 2.5 µg/mL in assay [3].

Take `CCCSc1ccc(C2=Nc3ccccc3N=C(SCC[N+](C)(CC)CC)C2)cc1` [Compound 78]: the MIC in assay [1] was found to be 1.25 µg/mL; in the assay with Escherichia coli 100 it was 10 µg/mL; in assay [2] it was 1.25 µg/mL; in assay [3], 1.25 µg/mL.

With `CCN(CC)CCSC1=Nc2ccccc2N=C(c2cccc(Cl)c2)C1` [Compound 21, 2,beta,N-diethylaminothylthio-4,m-chlorophenyl-3H-1,5-benzodiazepine^. HCl], the MIC in assay [1] turned out to be 40 µg/mL; in the assay with Escherichia coli 100, 80 µg/mL; in assay [2], 40 µg/mL; in assay [3], 20 µg/mL.

Take `CC[N+](C)(CC)CCSC1=Nc2ccccc2N=C(c2ccccc2Cl)C1` [Compound 24, 2,β,N-diethylaminoethylthio-4,o-chlorophenyl-3H-1,5-benzodiazepine iodomethylate]: the MIC in assay [2] worked out at 80 µg/mL.

Regarding `C[N+]1(CCSC2=Nc3ccccc3N=C(c3ccc(Cl)cc3)C2)CCCC1` [Compound 16, 2,β,N-pyrrolidinoethylthio-4,p-chlorophenyl-3H-1,5-benzodiazepine iodomethylate], the MIC in assay [1] turned out to be 40 µg/mL; in the assay with Escherichia coli 100, 40 µg/mL; in assay [2], 20 µg/mL; in assay [3], 40 µg/mL.

On to `CC[N+](C)(CC)CCSC1=Nc2ccccc2N=C(c2ccc(Oc3ccccc3)cc2)C1` [Compound 28, 2,beta,N-diethylaminoethylthio-4,p-phenoxyphenyl-3H-1,5-benzodiazepine iodomethylate], for which the “APR8: difference between logarithms” value in assay [4] was 1.

Turning to `C[N+]1(C)CC[N+](C)(CCSC2=Nc3ccccc3N=C(c3ccc(Sc4ccccc4)cc3)C2)CC1` [Compound 36, 2,beta,N(N'-methyl)piperazinoethylthio-4-p-phenylthiophenyl-3H-1,5-benzodiazepine bis-iodomethylate], the MIC was 160 µg/mL with Escherichia coli 100 and 80 µg/mL in assay [3].
